Experimental data reported in US20030162759A1, “Aldosterone blocker therapy to prevent or treat inflammation-related disorders” (priority 2000, published 2003).

Experiments:
[1] = test system: angiotensin II infused rats; test: Assay A angiotensin II infusion model: heart histology (coronary vascular inflammation, myocardial injury); assay type: in vivo, rat; conditions: out of ten animals per group; angiotensin II/salt, 4 weeks; eplerenone 100 mpk
[2] = test system: angiotensin II infused rats; test: Assay A angiotensin II infusion model: systolic blood pressure by tail-cuff; assay type: in vivo, rat; conditions: Wistar rats, 1% NaCl, angiotensin II 25 ng/min sc; eplerenone 100 mpk; 4 weeks
Protocol: Assay A: In Vivo Angiotensin II Infusion Model
Male Wistar rats (n—50, 10/group; BW=200 g)
2. Angiotensin 11 (25 ng/min, sc via aizet minipump)
SBP measured by tail-cuff every week

angiotensin II: angiotensin II, 25 ng/min sc via minipump, used to induce hypertension with vascular inflammation in rats (DRVYIHPF; Angiotensin-2; UniProt P01015 25-32, looked up) [reference compound]
Animals with vascular inflammatory lesions in the coronary arteries [1]: Seven out of the ten | Systolic Blood Pressure [2]: Systolic blood pressure increased
